Tests used:
TRKA = target: T1, TRKA (Homo sapiens, UniProt P04629); experiment: Z'-LYTE kinase activity detection, TRKA; type: biochemical
T1 construct: purchased American Life Technologies PV3144

TRKC = target: T2, TRKC (Homo sapiens, UniProt Q16288); experiment: Z'-LYTE kinase activity detection, TRKC; type: biochemical
T2 construct: purchased American Life Technologies PV3617

BaF3-CD74-NTRK1-G595R = target: T3, BaF3-CD74-NTRK1-G595R (Homo sapiens, UniProt P04629, G595R); experiment: Drug-resistant cell proliferation inhibition (CCK-8); type: cell-based, mouse; details: 72 hours, read-out: drug-resistant cell viability IC50
T3 construct: constructed pCDNA3.1(+) plasmid vector carrying genes such as; fused on or other part: P04233 (HLA class II histocompatibility antigen gamma chain)
T3 sequence (P04629 510-796 G595R limits assumed): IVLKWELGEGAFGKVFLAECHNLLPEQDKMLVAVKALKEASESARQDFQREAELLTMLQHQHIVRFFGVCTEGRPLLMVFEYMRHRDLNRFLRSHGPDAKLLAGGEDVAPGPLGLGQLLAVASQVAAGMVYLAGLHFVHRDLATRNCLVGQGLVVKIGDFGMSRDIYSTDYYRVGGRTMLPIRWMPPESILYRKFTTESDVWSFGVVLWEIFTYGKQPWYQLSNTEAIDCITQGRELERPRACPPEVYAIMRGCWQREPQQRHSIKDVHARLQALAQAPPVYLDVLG
From the text: (§1) BaF3 cells (mouse pre-B cells) used in this experiment were purchased from Japan Cell Bank, all of the monoclonal stable strains, BaF3-CD74-NTRK1-G667C, BaF3-CD74-NTRK1-F589L, BaF3-CD74-NTRK1-G595R, BaF3-CD74-NTRK1-G667A, BaF3-CD74-NTRK1-V573M, BaF3-ETV6-NTRK2-G639R, BaF3-ETV6-NTRK2-G709C, BaF3-ETV6-NTRK2-V617M, BaF3-ETV6-NTRK2-F633L, BaF3-ETV6-NTRK3-G696C, BaF3-ETV6-NTRK3-G696A, BaF3-ETV6-NTRK3-G623R, BaF3-ETV6-NTRK3-G623E, BaF3-ETV6-NTRK3-F617L and BaF3-ETV6-NTRK3-V601M were constructed by our laboratory, and were identified by experiments such as positive control, protein expression and gene sequencing.
(§2) The brief steps for stable strains construction were as follows: constructed pCDNA3.1(+) plasmid vector carrying genes such as BaF3-CD74-NTRK1-G667C, BaF3-CD74-NTRK1-F589L, BaF3-CD74-NTRK1-G595R, BaF3-CD74-NTRK1-G667A, BaF3-CD74-NTRK1-V573M, BaF3-ETV6-NTRK2-G639R, BaF3-ETV6-NTRK2-G709C, BaF3-ETV6-NTRK2-V617M, BaF3-ETV6-NTRK2-F633L, BaF3-ETV6-NTRK3-G696C, BaF3-ETV6-NTRK3-G696A, BaF3-ETV6-NTRK3-G623R, BaF3-ETV6-NTRK3-G623E, BaF3-ETV6-NTRK3-F617L and BaF3-ETV6-NTRK3-V601M; the plasmid was electroporated into Ba/F3 cells using Amaxa® Cell Line Nucleofector® Kit V; 48 hours after of electroporation, geneticin (G418) with a final concentration of 1000 μg/mL was added to screen for two weeks, and the interleukin 3 (IL3) was removed to continue screening to obtain polyclonal stable strains; and then single clones were selected by limiting dilution method; the stable strains were then identified by the positive drugs, Western Blot (WB), and gene sequencing; the correct monoclonal through identification can be used to study the cell proliferation inhibitory activity of the inhibitors.
(§3) Cell proliferation inhibitory activity study: The cells in logarithmic growth phase were seeded into 96-well plates at 8000-12000 cells/well, and the inhibitors at different concentrations of (0-10 μM) were added the next day, and the culture was continued for 72 hours; then 10 μL of Cell Counting Kit-8 Cell Counting Reagent (CCK-8 Reagent) was added to each well, and continued to incubate for 1-3 hours; then its absorbance at 450 nm and 650 nm were measured with a super microplate reader. The median inhibitory concentration (IC50) was calculated using medical graphing software (GraphPad Prism 8.0.0).

BaF3-CD74-NTRK1-G667A = target: T4, BaF3-CD74-NTRK1-G667A (Homo sapiens, UniProt P04629, G667A); experiment: as above; type: cell-based, mouse; details: 72 hours, read-out: drug-resistant cell viability IC50
T4 construct: constructed pCDNA3.1(+) plasmid vector carrying genes such as; fused on or other part: P04233 (HLA class II histocompatibility antigen gamma chain)
T4 sequence (P04629 510-796 G667A limits assumed): as the sequence (P04629 510-796 G595R limits assumed) above, with R86G, G158A counted along it
From the text: as §1, §2, §3

BaF3-CD74-NTRK1-V573M = target: T5, BaF3-CD74-NTRK1-V573M (Homo sapiens, UniProt P04629, V573M); experiment: as above; type: cell-based, mouse; details: 72 hours, read-out: drug-resistant cell viability IC50
T5 construct: constructed pCDNA3.1(+) plasmid vector carrying genes such as BaF3-CD74-NTRK1-G667C; fused on or other part: P04233 (HLA class II histocompatibility antigen gamma chain)
T5 sequence (P04629 510-796 V573M limits assumed): as the sequence (P04629 510-796 G595R limits assumed) above, with V64M, R86G counted along it
From the text: as §1, §2, §3

BaF3-ETV6-NTRK3-V601M = target: T6, BaF3-ETV6-NTRK3-V601M (Homo sapiens, UniProt Q16288, V601M); experiment: as above; type: cell-based, mouse; details: 72 hours, read-out: drug-resistant cell viability IC50
T6 construct: constructed pCDNA3.1(+) plasmid vector carrying genes such as; fused on or other part: P41212 (Transcription factor ETV6)
T6 sequence (Q16288 whole entry V601M, the tested form may be a part): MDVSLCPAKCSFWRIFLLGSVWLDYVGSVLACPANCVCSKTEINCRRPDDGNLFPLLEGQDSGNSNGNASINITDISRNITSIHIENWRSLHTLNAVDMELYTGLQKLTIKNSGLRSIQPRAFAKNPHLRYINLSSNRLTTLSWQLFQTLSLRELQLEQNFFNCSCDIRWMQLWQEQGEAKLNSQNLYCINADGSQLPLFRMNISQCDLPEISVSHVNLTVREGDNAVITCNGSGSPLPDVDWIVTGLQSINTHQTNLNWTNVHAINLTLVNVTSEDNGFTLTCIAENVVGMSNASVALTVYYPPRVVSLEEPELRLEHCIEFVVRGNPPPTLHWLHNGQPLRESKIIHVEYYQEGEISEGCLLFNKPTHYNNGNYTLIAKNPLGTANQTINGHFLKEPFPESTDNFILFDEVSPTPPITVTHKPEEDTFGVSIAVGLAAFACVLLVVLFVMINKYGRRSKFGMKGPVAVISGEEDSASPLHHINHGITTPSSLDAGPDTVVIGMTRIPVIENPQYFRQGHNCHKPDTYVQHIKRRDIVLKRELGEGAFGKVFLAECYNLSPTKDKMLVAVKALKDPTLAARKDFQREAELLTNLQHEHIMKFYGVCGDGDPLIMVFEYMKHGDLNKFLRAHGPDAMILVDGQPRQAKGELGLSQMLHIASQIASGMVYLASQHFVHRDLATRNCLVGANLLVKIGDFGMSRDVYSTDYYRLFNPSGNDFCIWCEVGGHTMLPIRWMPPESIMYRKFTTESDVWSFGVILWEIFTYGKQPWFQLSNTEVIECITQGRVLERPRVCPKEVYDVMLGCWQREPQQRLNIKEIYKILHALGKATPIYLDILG
From the text: as §1, §2, §3

[1] = system: Ba/F3-CD74-TRKAG^667C allograft mouse model; experiment: In vivo antitumor efficacy, allograft mouse model; design: species or system CB17-SCID female mice; details: for TGI: after treatment for 12 days
Procedure: After washed twice with normal saline, the cells were adjusted to a density of 1×10^7 cells/mL and placed on ice, and injected subcutaneously into the right axilla of CB17-SCID female mice (purchased from Viton Lever, Beijing, 6-8 weeks old) as soon as possible, with 200 μL each injection.
The control group was given the same volume of mixed solvent orally. Body weight and tumor volume were recorded every two days.

SRC = SRC (Homo sapiens, UniProt P12931); experiment: Kinase selectivity, Z'-LYTE
Procedure: (§4) Enzymatic reaction: In a 384-well plate, added 5 μL of enzyme-substrate system [50 mM 4-hydroxyethylpiperazineethanesulfonic acid (HEPES) pH 7.5, 0.01% BRIJ-35, 10 mM of magnesium chloride (MgCl2), 1 mM of ethylene glycol bis(2-aminoethyl ether)tetraacetic acid (EGTA), 2 μM of Tyr 01 peptide substrate], transferred 5 nL of compound (concentration gradient) using an Echo520 Ultra-Micro Liquid Pipetting System. […] Shaked and mixed, then centrifuged, and reacted at 30° C. in the dark for 1.5 hours.

RET = RET (Homo sapiens, UniProt P07949); experiment: Kinase selectivity, Z'-LYTE
Procedure: as §4

VEGFR2 = VEGFR2 (Homo sapiens, UniProt P35968); experiment: Kinase selectivity, Z'-LYTE
Procedure: as §4

Kit = Kit (Homo sapiens, UniProt P10721); experiment: Kinase selectivity, Z'-LYTE
Chain of Kit (P10721 26-976, species assumed): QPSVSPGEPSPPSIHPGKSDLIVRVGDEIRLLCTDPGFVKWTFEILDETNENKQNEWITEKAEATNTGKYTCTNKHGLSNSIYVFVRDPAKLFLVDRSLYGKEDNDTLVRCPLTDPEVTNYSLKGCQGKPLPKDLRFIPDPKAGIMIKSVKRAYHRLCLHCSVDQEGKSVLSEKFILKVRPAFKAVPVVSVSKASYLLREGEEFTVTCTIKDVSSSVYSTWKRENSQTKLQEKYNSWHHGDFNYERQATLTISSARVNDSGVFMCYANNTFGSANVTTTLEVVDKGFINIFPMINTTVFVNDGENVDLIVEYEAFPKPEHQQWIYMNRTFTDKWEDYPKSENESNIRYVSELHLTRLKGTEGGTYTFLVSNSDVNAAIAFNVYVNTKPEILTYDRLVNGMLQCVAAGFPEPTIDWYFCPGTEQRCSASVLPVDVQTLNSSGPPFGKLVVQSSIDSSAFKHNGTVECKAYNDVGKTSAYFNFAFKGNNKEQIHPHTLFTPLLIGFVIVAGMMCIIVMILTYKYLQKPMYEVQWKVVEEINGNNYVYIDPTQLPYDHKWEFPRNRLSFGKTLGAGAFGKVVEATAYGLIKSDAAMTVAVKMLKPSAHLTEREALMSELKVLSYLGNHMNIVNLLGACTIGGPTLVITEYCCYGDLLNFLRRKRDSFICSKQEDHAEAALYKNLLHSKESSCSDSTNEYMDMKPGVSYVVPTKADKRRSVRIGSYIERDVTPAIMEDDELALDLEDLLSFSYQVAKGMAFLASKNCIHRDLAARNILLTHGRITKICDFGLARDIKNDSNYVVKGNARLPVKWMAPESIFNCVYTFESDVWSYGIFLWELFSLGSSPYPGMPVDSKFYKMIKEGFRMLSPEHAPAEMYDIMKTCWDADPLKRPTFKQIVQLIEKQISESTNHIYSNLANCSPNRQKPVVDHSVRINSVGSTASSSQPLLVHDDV
Procedure: as §4

PDGFRA = PDGFRA (Homo sapiens, UniProt P16234); experiment: Kinase selectivity, Z'-LYTE
Procedure: as §4

TRKB = target: T7, TRKB (Homo sapiens, UniProt Q16620); experiment: Z'-LYTE kinase activity detection, TRKB; type: biochemical
T7 construct: purchased American Life Technologies PV3616
T7 sequence (Q16620 32-822): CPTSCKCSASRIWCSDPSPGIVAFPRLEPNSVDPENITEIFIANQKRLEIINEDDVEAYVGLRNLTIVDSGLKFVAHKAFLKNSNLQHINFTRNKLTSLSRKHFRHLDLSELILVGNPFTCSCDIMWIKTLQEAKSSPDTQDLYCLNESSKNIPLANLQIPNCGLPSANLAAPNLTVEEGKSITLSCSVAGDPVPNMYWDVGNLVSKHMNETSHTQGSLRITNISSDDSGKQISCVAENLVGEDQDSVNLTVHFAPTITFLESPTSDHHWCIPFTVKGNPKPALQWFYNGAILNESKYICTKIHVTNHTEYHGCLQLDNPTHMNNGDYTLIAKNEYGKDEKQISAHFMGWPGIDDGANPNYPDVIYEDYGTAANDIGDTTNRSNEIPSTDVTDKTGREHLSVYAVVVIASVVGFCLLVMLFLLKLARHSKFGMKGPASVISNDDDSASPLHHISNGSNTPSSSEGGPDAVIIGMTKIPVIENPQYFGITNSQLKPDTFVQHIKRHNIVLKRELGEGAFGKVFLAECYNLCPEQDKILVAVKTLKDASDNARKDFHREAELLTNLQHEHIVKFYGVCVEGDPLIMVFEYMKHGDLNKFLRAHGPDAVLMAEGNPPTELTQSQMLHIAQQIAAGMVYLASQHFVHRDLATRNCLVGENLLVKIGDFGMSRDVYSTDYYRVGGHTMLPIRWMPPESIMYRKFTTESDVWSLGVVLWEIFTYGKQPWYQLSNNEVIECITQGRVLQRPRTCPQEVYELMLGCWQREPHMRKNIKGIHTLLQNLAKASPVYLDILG

BaF3-ETV6-NTRK2-F633L = target: T8, BaF3-ETV6-NTRK2-F633L (Homo sapiens, UniProt Q16620, F617L); experiment: Drug-resistant cell proliferation inhibition (CCK-8); type: cell-based, mouse; details: 72 hours, read-out: drug-resistant cell viability IC50
T8 construct: constructed pCDNA3.1(+) plasmid vector carrying genes such as; fused on or other part: P41212 (Transcription factor ETV6)
T8 sequence (Q16620 538-822 F617L limits assumed): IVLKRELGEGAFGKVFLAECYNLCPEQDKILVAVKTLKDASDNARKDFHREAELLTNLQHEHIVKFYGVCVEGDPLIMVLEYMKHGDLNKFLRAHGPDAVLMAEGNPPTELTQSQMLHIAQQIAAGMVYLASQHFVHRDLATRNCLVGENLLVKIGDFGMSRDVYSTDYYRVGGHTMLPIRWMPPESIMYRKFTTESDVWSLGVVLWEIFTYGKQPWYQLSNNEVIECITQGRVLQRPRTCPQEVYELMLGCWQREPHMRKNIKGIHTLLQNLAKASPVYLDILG
From the text: as §1, §2, §3

BaF3-ETV6-NTRK2-V617M = target: T9, BaF3-ETV6-NTRK2-V617M (Homo sapiens, UniProt Q16620, V601M); experiment: as above; type: cell-based, mouse; details: 72 hours, read-out: drug-resistant cell viability IC50
T9 construct: constructed pCDNA3.1(+) plasmid vector carrying genes such as; fused on or other part: P41212 (Transcription factor ETV6)
T9 sequence (Q16620 538-822 V601M limits assumed): as the sequence (Q16620 538-822 F617L limits assumed) above, with V64M, L80F counted along it
From the text: as §1, §2, §3

T1 sequence (P04629 33-796): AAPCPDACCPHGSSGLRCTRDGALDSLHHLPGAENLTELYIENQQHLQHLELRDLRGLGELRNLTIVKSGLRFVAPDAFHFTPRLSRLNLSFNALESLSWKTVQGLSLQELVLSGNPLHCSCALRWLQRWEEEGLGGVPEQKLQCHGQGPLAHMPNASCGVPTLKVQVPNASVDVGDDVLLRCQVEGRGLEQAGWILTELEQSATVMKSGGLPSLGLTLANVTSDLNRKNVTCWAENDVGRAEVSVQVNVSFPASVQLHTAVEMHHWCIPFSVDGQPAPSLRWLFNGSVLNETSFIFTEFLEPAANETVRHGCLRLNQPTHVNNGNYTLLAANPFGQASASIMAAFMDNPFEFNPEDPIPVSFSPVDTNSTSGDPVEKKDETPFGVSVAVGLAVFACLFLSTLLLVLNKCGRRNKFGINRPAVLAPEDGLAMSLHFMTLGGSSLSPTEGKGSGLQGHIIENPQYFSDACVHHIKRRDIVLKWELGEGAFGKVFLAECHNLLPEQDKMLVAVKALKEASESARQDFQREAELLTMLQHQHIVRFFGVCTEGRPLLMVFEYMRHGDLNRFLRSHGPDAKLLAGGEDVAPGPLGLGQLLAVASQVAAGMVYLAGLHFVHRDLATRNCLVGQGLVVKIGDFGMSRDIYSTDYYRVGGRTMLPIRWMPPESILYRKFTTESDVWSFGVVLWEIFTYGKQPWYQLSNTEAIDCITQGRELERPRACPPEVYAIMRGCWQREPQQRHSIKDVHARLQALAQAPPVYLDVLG
T2 sequence (Q16288 32-839): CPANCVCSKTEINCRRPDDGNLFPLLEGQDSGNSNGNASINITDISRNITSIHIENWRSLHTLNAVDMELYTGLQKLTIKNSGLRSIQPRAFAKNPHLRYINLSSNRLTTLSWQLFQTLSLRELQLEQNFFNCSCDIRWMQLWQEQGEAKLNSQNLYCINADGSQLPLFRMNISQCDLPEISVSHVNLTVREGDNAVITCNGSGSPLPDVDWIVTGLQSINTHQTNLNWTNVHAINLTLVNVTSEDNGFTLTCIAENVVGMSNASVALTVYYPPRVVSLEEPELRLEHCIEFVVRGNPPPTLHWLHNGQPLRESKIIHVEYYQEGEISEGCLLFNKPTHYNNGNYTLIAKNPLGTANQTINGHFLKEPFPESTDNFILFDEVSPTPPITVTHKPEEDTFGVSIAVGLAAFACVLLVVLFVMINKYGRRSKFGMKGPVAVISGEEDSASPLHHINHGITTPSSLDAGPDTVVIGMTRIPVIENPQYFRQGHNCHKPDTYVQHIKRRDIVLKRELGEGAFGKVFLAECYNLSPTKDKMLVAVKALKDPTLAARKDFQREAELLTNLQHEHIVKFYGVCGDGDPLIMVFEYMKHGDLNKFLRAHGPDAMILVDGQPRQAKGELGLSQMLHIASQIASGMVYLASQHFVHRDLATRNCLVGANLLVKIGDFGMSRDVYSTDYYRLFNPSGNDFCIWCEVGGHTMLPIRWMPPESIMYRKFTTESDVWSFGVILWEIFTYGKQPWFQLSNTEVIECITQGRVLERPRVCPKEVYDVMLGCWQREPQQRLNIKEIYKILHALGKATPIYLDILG

Structure (SMILES)	IC50 (TRKA) [nM]	IC50 (TRKC) [nM]	IC50 (BaF3-CD74-NTRK1-G595R) [nM]	IC50 (BaF3-CD74-NTRK1-G667A) [nM]	IC50 (BaF3-CD74-NTRK1-V573M) [nM]	IC50 (BaF3-ETV6-NTRK3-V601M) [nM]	TGI ([1]; 6.25 mg/kg/day oral) [%]	TGI ([1]; 12.5 mg/kg/day oral) [%]	TGI ([1]; 25 mg/kg/day oral) [%]	TGI ([1]; 50 mg/kg/day oral) [%]	tumor size ([1]; after 2 days of treatment at the lowest dose of 6.25 mg/kg, oral)	IC50 (SRC) [nM]	IC50 (RET) [nM]	IC50 (VEGFR2) [nM]	IC50 (Kit) [nM]	IC50 (PDGFRA) [nM]	IC50 (TRKB) [nM]	IC50 (BaF3-ETV6-NTRK2-F633L) [nM]	IC50 (BaF3-ETV6-NTRK2-V617M) [nM]
Cc1c(C#Cc2cnc3ccc(N4CCC(O)CC4)nn23)cccc1C(=O)Nc1cc(Cl)cc(C(F)(F)F)c1 [XS3-55, N-(3-CHLORO-5-(TRIFLUOROMETHYL)PHENYL)-3-((6-(4-HYDROXYPIPERIDIN-1-YL)IMIDAZO[1,2-B]PYRIDAZINE-3-YL)ETHYNYL)-2-METHYLBENZAMIDE]	< 10	10 to 100	> 1000	< 10	10 to 100	< 10	50.9	76.3	89.2	91.6	Significant reductions in tumor size	526	> 10000	833	1670	5890	–	–	–
Cc1c(C#Cc2cnc3ccc(N4CCOCC4)nn23)cccc1C(=O)Nc1cc(CN2CCN(C)CC2)cc(C(F)(F)F)c1 [XS3-68, 2-METHYL-N-(3-((4-METHYLPIPERAZIN-1-YL)METHYL)-5-(TRIFLUOROMETHYL)PHENYL)-3-((6-METHYLENE) LINOIMIDAZO[1,2-B]PYRIDAZIN-3-YL)ETHYNYL)BENZAMIDE]	< 10	< 10	100 to 1000	< 10	10 to 100	< 10	–	–	–	–	–	–	–	–	–	–	< 10	100 to 1000	< 10
Cc1c(C#Cc2cnc3ccc(N4CCC(O)CC4)nn23)cccc1C(=O)Nc1cc(CN2CCN(C)CC2)cc(C(F)(F)F)c1 [XS3-81, 3-((6-(4-HYDROXYPIPERIDIN-1-YL)IMIDAZO[1,2-B]PYRIDAZIN-3-YL)ETHYNYL)-2-METHYL-N-(3-(((4-METHYLPIPERAZIN-1-YL)METHYL)-5-(TRIFLUOROMETHYL)PHENYL)BENZAMIDE]	< 10	< 10	100 to 1000	< 10	< 10	< 10	–	–	–	–	–	–	–	–	–	–	< 10	100 to 1000	< 10
Cc1cn(-c2cc(NC(=O)c3cccc(C#Cc4cnc5ccc(N6CCC(O)CC6)nn45)c3C)cc(C(F)(F)F)c2)cn1 [XS3-87, 3-((6-(4-HYDROXYPIPERIDIN-1-YL)IMIDAZO[1,2-B]PYRIDAZIN-3-YL)ETHYNYL)-2-METHYL-N-(3-(4-METHYL-1H-IMIDAZOL-1-YL)-5-(TRIFLUOROMETHYL)PHENYL)BENZAMIDE]	< 10	< 10	100 to 1000	< 10	< 10	< 10	–	–	–	–	–	–	–	–	–	–	< 10	10 to 100	< 10

Source: patent US11834454B2, “Alkynylphenylbenzamide compounds and applications thereof” (SHENZHEN NEWDEL BIOTECH CO., LTD., priority 2021, dated 2023)
